Assay results published in patent US10709692B2, “Isoxazolidine derived inhibitors of receptor interacting protein kinase 1 (RIPK1)” (Denali Therapeutics Inc., priority 2015, dated 2020).
Values joined by “and” are separate entries in the source; they are usually repeats but may differ in a detail not shown here. Equal values may be shown once.

Target: T1, receptor interacting protein kinase 1 (GST-hRIPK1 (8-327)) (Homo sapiens, UniProt Q13546)
T1 construct: GST-hRIPK1 (8-327) enzyme was generated by Proteros GmbH by Baculovirus expression system
T1 sequence (Q13546 8-327): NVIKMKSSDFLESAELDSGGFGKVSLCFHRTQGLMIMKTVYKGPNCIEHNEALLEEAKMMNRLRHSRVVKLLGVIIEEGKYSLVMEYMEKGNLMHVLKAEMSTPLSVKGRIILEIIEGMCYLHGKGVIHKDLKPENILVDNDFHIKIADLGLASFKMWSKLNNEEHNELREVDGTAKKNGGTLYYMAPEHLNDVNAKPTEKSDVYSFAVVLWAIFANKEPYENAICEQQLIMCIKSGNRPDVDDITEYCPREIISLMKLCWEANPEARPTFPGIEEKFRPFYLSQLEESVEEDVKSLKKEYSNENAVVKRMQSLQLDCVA
Assay: Fluorescent Polarization Binding (FP Binding) assay
Conditions: 10 nM GST-hRIPK1 (8-327), 5 nM fluorescent-labeled ligand, 30 min at RT
Procedure: Fluorescent Polarization Binding (FP Binding) assay (Berger S. B. et al. (2015) Cell Death Discovery, 1: 15009; Maki J. L. et al. (2012) Anal Biochem., 427(2): 164-174) was performed in polystyrene low volume 384-well black plate, at Room Temperature (RT) in a final volume of 10.1 μl/well using 10 nM of GST-hRIPK1 (8-327) enzyme and 5 nM of fluorescent-labeled ligand (14-(2-{[3-({2-{[4-(cyanomethyl)phenyl]amino}-6-[(5-cyclopropyl-1H-pyrazol-3-yl)amino]-4-pyrimidinyl}amino) propyl]amino}-2-oxoethyl)-16,16,18,18-tetramethyl-6,7,7a,8a,9,10,16,18-octahydrobenzo[2″3″]indolizino[8″, 0.7″:5′,6′]pyrano[3′,2′:3,4]pyrido[1,2-a]indol-5-ium-2-sulfonate.
Test compounds were serially diluted in DMSO at 100 fold final concentrations in the assay (1% DMSO final). In each well of a 384-well Plate were dispensed 0.1 μL of compound solution (or DMSO for controls) followed by 5 μL of GST-hRIPK1 (8-327) at twice the final concentrations in assay-buffer (50 mM HEPES pH 7.5, 10 mM NaCl, 50 mM MgCl2, 0.02% CHAPS, 0.5 mM DTT and 0.01% Pluronic F127). For negative control the enzyme addition was replaced by assay buffer only.
After addition of 5 μL of fluorescent-labeled ligand at twice the final concentrations in assay buffer, the plate was incubated at RT for 30 min. At the end, the binding was measured as FP value with the Envision (PerkinElmer) plate reader using filter for an excitation λ=531 nm FP and an emission λ=595 nm FP (S & P-pol).
Test compound inhibition was expressed as percent inhibition of internal assay controls. For concentration response curves, normalized data is fit and IC50 determined using XL-fit (IDBS) for Excel. IC50 were averaged to determine a mean value, for a minimum of two independent experiments.
Receptor interacting protein kinase 1 activity of exemplary compounds was determined according to the above general procedures.
Receptor interacting protein kinase 1 activity of certain compounds was determined according to the above general procedures.

Row | Structure (SMILES) | IC50
1 | O=C(C1CCO1)N1OCC[C@H]1c1ccccc1 (single isomer, unassigned) [Compound 52] | > 10000 nM
2 | O=C(C1CCO1)N1OCC[C@H]1c1ccccc1 (single isomer, unassigned) [Compound 53] | 1000 to 10000 nM
3 | CC(C)(C)C(=O)N1OCC[C@H]1c1ccc(F)nc1 (single isomer, unassigned) [Compound 61] | < 1000 nM and 28 nM
4 | CC(C)(C)C(=O)N1OCC[C@@H]1c1ccc(F)nc1 (single isomer, unassigned) [Compound 62] | 1000 to 10000 nM
5 | CC(C)(C)C(=O)N1OCCC1c1ccc(F)cc1 (single isomer, unassigned) [Compound 74, 1-[3-(4-Fluorophenyl)-1,2-oxazolidin-2-yl]-2,2-dimethylpropan-1-one] | > 10000 nM
6 | CC(C)(C)C(=O)N1OCC[C@H]1c1cc(F)cc(C#N)c1 (single isomer, unassigned) [Compound 109] | < 1000 nM and 7 nM
7 | CC1(C(=O)N2OCC[C@H]2c2ccc(F)cc2)CCCO1 (single isomer, unassigned) [Compound 136] | 1000 to 10000 nM
8 | CC1(C(=O)N2OCC[C@H]2c2ccc(F)cc2)CCCO1 (single isomer, unassigned) [Compound 137] | 1000 to 10000 nM
9 | CC(C(=O)N1OCC[C@H]1c1ccc(C#N)cc1)C(F)(F)F (single isomer, unassigned) [Compound 180] | < 1000 nM
10 | CC(OC(F)(F)F)C(=O)N1OCC[C@H]1c1ccc(F)cc1 (single isomer, unassigned) [Compound 183] | < 1000 nM
11 | CC(OC(F)(F)F)C(=O)N1OCC[C@H]1c1ccc(F)nc1 (single isomer, unassigned) [Compound 184] | < 1000 nM
12 | CC(OC(F)(F)F)C(=O)N1OCC[C@H]1c1ccc(F)nc1 (single isomer, unassigned) [Compound 185] | 1000 to 10000 nM
13 | Cc1noc(C)c1C(C)C(=O)N1OCC[C@H]1c1ccc(F)cc1 (single isomer, unassigned) [Compound 186] | 1000 to 10000 nM
14 | CC(C(=O)N1OCC[C@H]1c1ccc(F)cc1)C(F)F (single isomer, unassigned) [Compound 188] | < 1000 nM
15 | CC(C(=O)N1OCC[C@H]1c1ccc(F)cc1)C(F)F (single isomer, unassigned) [Compound 189] | < 1000 nM
16 | CC(CC#N)C(=O)N1OCC[C@H]1c1ccc(C#N)cc1 (single isomer, unassigned) [Compound 209] | < 1000 nM
17 | CC(CC#N)C(=O)N1OCC[C@H]1c1ccc(C#N)cc1 (single isomer, unassigned) [Compound 210] | 1000 to 10000 nM
18 | CC1(C(=O)N2OCC[C@H]2c2ccc(F)c(F)c2)CCOC1 (single isomer, unassigned) [Compound 211] | < 1000 nM
19 | CC1(C(=O)N2OCC[C@H]2c2ccc(F)c(F)c2)CCOC1 (single isomer, unassigned) [Compound 212] | < 1000 nM
20 | CC(C(=O)N1OCC[C@H]1c1ccc(C#N)cc1)C1CC1 (single isomer, unassigned) [Compound 213] | < 1000 nM
21 | CC(C(=O)N1OCC[C@H]1c1ccc(C#N)cc1)C1CC1 (single isomer, unassigned) [Compound 214] | < 1000 nM
22 | CC1CC1C(=O)N1OCC[C@H]1c1ccc(C#N)cc1 (single isomer, unassigned) [Compound 215] | < 1000 nM
23 | CC1CC1C(=O)N1OCC[C@H]1c1ccc(C#N)cc1 (single isomer, unassigned) [Compound 216] | 1000 to 10000 nM
24 | Cc1ncc([C@@H]2CCON2C(=O)C(C)C2CC2)cc1F (single isomer, unassigned) [Compound 217] | < 1000 nM
25 | Cc1ncc([C@@H]2CCON2C(=O)C(C)C2CC2)cc1F (single isomer, unassigned) [Compound 218] | < 1000 nM
26 | CC(CC(F)(F)F)C(=O)N1OCC[C@H]1c1ccc(C#N)cc1 (single isomer, unassigned) [Compound 230] | < 1000 nM
27 | CC(CC(F)(F)F)C(=O)N1OCC[C@H]1c1ccc(C#N)cc1 (single isomer, unassigned) [Compound 231] | < 1000 nM
28 | CC(CC(F)F)C(=O)N1OCC[C@H]1c1ccc(C#N)cc1 (single isomer, unassigned) [Compound 232] | < 1000 nM

Results, then the compound that gave them:

Row | IC50 | Structure (SMILES)
29 | < 1000 nM | CC1(C(=O)N2OCC[C@H]2c2ccc(F)cc2)CCCOC1 (single isomer, unassigned) [Compound 35]
30 | < 1000 nM | CC1(C(=O)N2OCC[C@H]2c2ccc(F)cc2)CCCOC1 (single isomer, unassigned) [Compound 36]
31 | < 1000 nM | CC1(C(=O)N2OCC[C@H]2c2ccc(F)cc2)CCOC1 (single isomer, unassigned) [Compound 40]
32 | < 1000 nM | CC1(C(=O)N2OCC[C@H]2c2ccc(F)cc2)CCOC1 (single isomer, unassigned) [Compound 41]
33 | < 1000 nM | CC(C(=O)N1OCCC1c1ccc(C#N)cc1)C(F)F (single isomer, unassigned) [Compound 91]
34 | < 1000 nM | CC(C(=O)N1OCCC1c1ccc(C#N)cc1)C(F)F (single isomer, unassigned) [Compound 92]
35 | < 1000 nM | CC(C(=O)N1OCC[C@H]1c1ccc(F)cc1)C(F)(F)F (single isomer, unassigned) [Compound 94]
36 | < 1000 nM | CC(C(=O)N1OCC[C@H]1c1ccc(F)cc1)C(F)(F)F (single isomer, unassigned) [Compound 95]
37 | < 1000 nM | [2H]C1([2H])C[C@@H](c2ccc(C#N)cc2)N(C(=O)C(C)(C)C)O1 (single isomer, unassigned) [Compound 98]
38 | < 1000 nM | C[C@H]1C[C@@H](c2ccc(C#N)cc2)N(C(=O)C(C)(C)C)O1 (single isomer, unassigned) [Compound 99]
39 | < 1000 nM | C[C@@H]1C[C@@H](c2ccc(C#N)cc2)N(C(=O)C(C)(C)C)O1 (single isomer, unassigned) [Compound 100]
40 | < 1000 nM | CC(C)(C)C(=O)N1OCC[C@@H]1c1cc(F)cc(F)c1 (single isomer, unassigned) [Compound 102]
41 | < 1000 nM | CC(C)(C)C(=O)N1OCC[C@H]1c1cc(F)cc(F)c1 (single isomer, unassigned) [Compound 103]
42 | < 1000 nM | Cc1cncc([C@@H]2CCON2C(=O)C(C)(C)C)n1 (single isomer, unassigned) [Compound 107]
43 | < 1000 nM | CC1(C(=O)N2OCC[C@H]2c2ccc(F)nc2)CC1(F)F (single isomer, unassigned) [Compound 112]
44 | < 1000 nM | CC1(C(=O)N2OCC[C@H]2c2ccc(F)nc2)CC1(F)F (single isomer, unassigned) [Compound 113]
45 | < 1000 nM | CC1(C(=O)N2OCC[C@H]2c2ccc(F)cc2)CC1(F)F (single isomer, unassigned) [Compound 114]
46 | < 1000 nM | CC1(C(=O)N2OCC[C@H]2c2ccc(F)cc2)CC1(F)F (single isomer, unassigned) [Compound 115]
47 | < 1000 nM | CC(C(=O)N1OCC[C@H]1c1ccc(F)nc1)C1CC1 (single isomer, unassigned) [Compound 116]
48 | < 1000 nM | CC(C(=O)N1OCC[C@H]1c1ccc(F)nc1)C1CC1 (single isomer, unassigned) [Compound 117]
49 | < 1000 nM | Cc1cnc([C@@H]2CCON2C(=O)C(C)C(F)(F)F)cn1 (single isomer, unassigned) [Compound 129]
50 | < 1000 nM | Cc1cnc([C@@H]2CCON2C(=O)C(C)C(F)(F)F)cn1 (single isomer, unassigned) [Compound 130]
51 | < 1000 nM | CC1(C(=O)N2OCC[C@H]2c2ccc(F)nc2)CCOC1 (single isomer, unassigned) [Compound 141]
52 | < 1000 nM | CC1(C(=O)N2OCC[C@H]2c2ccc(F)nc2)CCOC1 (single isomer, unassigned) [Compound 142]
53 | < 1000 nM | CC(C(=O)N1OCC[C@H]1c1ccc(F)nc1)C(F)(F)F (single isomer, unassigned) [Compound 162]
54 | < 1000 nM | CC(C(=O)N1OCC[C@H]1c1ccc(F)nc1)C(F)(F)F (single isomer, unassigned) [Compound 163]
55 | < 1000 nM | CC(C(=O)N1OCC[C@H]1c1ccc(C#N)cc1)C(F)(F)F (single isomer, unassigned) [Compound 179]
